Converted amounts (≈) assume the structure as drawn. Square brackets hold non-standard residues; d marks the D form. Peptide text beside a SMILES is read from it. * marks the point of attachment. Palmitoyl = CCCCCCCCCCCCCCCC(=O)*; Orn = NCCC[C@H](N)C(=O)O; Dab = NCC[C@H](N)C(=O)O; Dap = NC[C@H](N)C(=O)O
Legend:
[1] = system: Candida albicans ATCC 10231; assay type: cell-based; conditions: ATCC 10231, 18 h
Excerpt: (§1) Fmoc-Lys(Boc)-OH and the coupling reagents were purchased from GL Biochem (Shanghai, China). Palmitoyl Fmoc-amino acids: Fmoc-Lys(C16)-OH, Fmoc-Orn(C16)-OH, Fmoc-Dab(C16)-OH, and Fmoc-Dap(C16)-OH were acquired from Iris Biotech GmbH (Marktredwitz, Germany). The resin and solvents were purchases from Rapp Polymere (Tübingen, Germany), Merck (Darmstadt, Germany), and Avantor Performance Materials (Gliwice, Poland), respectively. The phospholipids, 1,2-dipalmitoyl-sn-glycero-3-phosphocholine (DPPC), 1,2-dipalmitoyl-sn-glycero-3-[phospho-rac-(1-glycerol)] (DPPG), 1-palmitoyl-2-oleoyl-glycero-3-phosphocholine (POPC) and 1-palmitoyl-2-oleoyl-sn-glycero-3-[phospho-rac-(1-glycerol)] (POPG), were purchased from Avanti Polar Lipids (Alabaster, AL, USA). LPS E. coli 055:B5 and phosphate buffered saline (PBS) were from Sigma-Aldrich (Steinheim, Germany). The Mueller Hinton broth was bought from BIOCORP (Warsaw, Poland) and the RPMI-1640 medium from Sigma-Aldrich (Steinheim, Germany). LIVE/DEAD™ BacLight™ Bacterial Viability Kit was obtained from Thermo Fisher Scientific (Waltham, MA, USA). Bacterial strains (Escherichia coli ATCC 25922, Pseudomonas aeruginosa ATCC 9027, Staphylococcus aureus ATCC 25923, Staphylococcus epidermidis ATCC 1922) and the fungal strain (Candida albicans ATCC 10231) were obtained from the Polish Collection of Microorganisms, Polish Academy of Science, Institute of Immunology and Experimental Therapy, Wroclaw, Poland.
(§2) Antimicrobial activity of the lipopeptides was determined according to the broth microdilution guidelines recommended by the Clinical and Laboratory Standards Institute (CLSI). Minimum inhibitory concentrations (MICs) were assumed as the lowest concentration of the peptide solution, at which the visible growth of microorganisms was inhibited. MIC values of lipopeptides against bacteria were evaluated in the Mueller–Hinton broth and against fungus in the RPMI-1640 medium. Initial inoculums of bacteria and fungus (with concentrations of 5 × 10^5 CFU/mL and 2 × 10^3 CFU/mL, respectively) were exposed to increasing concentrations of lipopeptides solutions over the range of 1–512 µg/mL. […] The 96-well plates filled with appropriate inoculums and the tested compounds were incubated for 18 h at 37 °C. Presented values are the mean of the results obtained in three independent experiments.

[2] = system: Escherichia coli ATCC 25922; assay type: cell-based; conditions: ATCC 25922, 18 h
Excerpt: as §1, §2

[3] = system: Pseudomonas aeruginosa ATCC 9027; assay type: cell-based; conditions: ATCC 9027, 18 h
Excerpt: as §1, §2

[4] = system: Staphylococcus aureus ATCC 25923; assay type: cell-based; conditions: ATCC 25923, 18 h
Excerpt: as §1, §2

[5] = system: Staphylococcus epidermidis ATCC 1922; assay type: cell-based; conditions: ATCC 1922, 18 h
Excerpt: as §1, §2

[6] = system: 46BR.1N human skin fibroblasts cell line; assay type: cell-based
Experimental: (§3) Cytotoxicity was determined towards immortalized human HaCaT keratinocytes (DKFZ, Heidelberg, Germany), transformed human fibroblast cell line 46BR.1N (ECACC), as well as the human melanoma (A375), human lung cancer (A549), human colon cancer (HCT-116), human colon adenocarcinoma (HT-29), and human prostate cancer (LNCaP) cell lines. Keratinocytes and fibroblast cell lines were maintained in a humidified atmosphere with 5% CO2 at 37 °C in a Dulbecco’s modified Eagle’s medium (DMEM) (Sigma-Aldrich, Steinheim, Germany), which contained 4500 mg/L of glucose, 584 mg/L of L-glutamine, sodium pyruvate, and sodium bicarbonate. Additionally, the medium was supplemented with 10% of fetal bovine serum (FBS) (Sigma-Aldrich, Steinheim, Germany), 100 U/mL of penicillin, and 100 µg/mL of streptomycin (Sigma-Aldrich, Steinheim, Germany). The cells were grown in culture dishes (BD, Franklin Lakes, NJ, USA) and the medium was changed every 2 days. Afterwards, the fibroblasts and keratinocytes were harvested using a standard trypsin-EDTA solution, centrifuged, suspended in a medium supplemented with 10% FBS and seeded at a density of 5500–6000 cells per well into 96-well plates. After 24 h, the medium was exchanged with a serum- and antibiotic-free DMEM. The next day, serially diluted solutions of the lipopeptides prepared in a fresh FBS- and antibiotic-free medium were added to the wells. The potential cytotoxic effect of the compounds was analyzed over the concentration range of 1–25 µg/mL. After addition of the lipopeptides, cells were incubated for the next 24 h. At the end of the experiment, the cells were treated with 20 µL of MTT (5 mg/mL in PBS). After 3 h at 37 °C under 5% CO2, the medium was discarded and replaced by 6 mM HCl in isopropanol. As soon as the purple crystals of formazan were completely solubilized, absorbance was read at 570 nm with a plate reader. The optical density of the wells without the tested compounds were regarded as the positive control. The MTT assay was performed in triplicate for each cell line.
(§4) Determination of the half-maximum inhibitory concentrations (IC50) was done using GraphPad Prism 5 software (San Diego, CA, USA) based on the dose-response curves. The logarithm of the different concentrations of compounds was plotted against the percentage of inhibition in cell viability as compared with control probes, treated as 100%.

[7] = system: HaCaT human keratinocyte cell line; assay type: cell-based
Experimental: as §3, §4

[8] = system: A375 human malignant melanoma cell line; assay type: cell-based
Experimental: (§5) In the case of evaluation of cytotoxicity towards different types of the cancer cell lines (A375, A549, HCT-116, HT-29, and LNCaP, respective cells were seeded in 96-well plates (4500 cell/well) in the RPMI-1640 medium supplemented with 5% FBS without antibiotics and incubated for 24 h before stimulation with the lipopeptides. The next day, the cells were exposed to the effect of the serially diluted compounds added at concentrations ranging from 1 to 25 µg/mL for a period of 48 h. After the treatment, cells viability was evaluated by means of MTT assays, according to standard protocol, as just described. The experiment was repeated three times for each cell line.
as §4

[9] = system: A549 human epithelial lung carcinoma; assay type: cell-based
Experimental: as §5, §4

[10] = system: HCT-116 human colorectal carcinoma; assay type: cell-based
Experimental: as §5, §4

[11] = system: HT-29 human colorectal adenocarcinoma; assay type: cell-based
Experimental: as §5, §4

[12] = system: LNCaP human prostate carcinoma; assay type: cell-based
Experimental: as §5, §4

[13] = system: MCF-7 breast cancer cell line; assay type: cell-based, human
[14] = Analytical RP-HPLC retention time as measure of hydrophobicity; assay type: physicochemical; conditions: Jupiter 4 µ Proteo 90 Å 250 x 4.60 mm, linear gradient 15-90% B in A in 30 min, 1 ml/min, A 0.1% aqueous TFA, B 80% acetonitrile in water with 0.1% TFA
Experimental: The lipopeptides were purified in a Waters RP-HPLC preparative system (Jupiter 4 µ Proteo column, 90 Å, 250 × 10 mm) with the linear gradient of solution B in A from 30% to 60% (A, 0.1% solution of TFA in water and B, 80% solution of ACN in water containing 0.1% of TFA) in 40 min with a flow rate of 5 mL/min. Final purity of the analogues (at least 97%) was determined using an analytical RP-HPLC Shimadzu system (Jupiter 4 µ Proteo column, 90 Å, 250 × 4.60 mm) with the linear gradient of solution B in A from 15% to 90% in 30 min with a flow rate of 1 mL/min. Identity of lipopeptides was confirmed by MALDI-TOF mass spectrometry. Analytical data of the synthesized analogues are presented in Table S1 (Supplementary Materials). ^a linear gradient 15-90% of B in A for 30 min, flow rate 1 ml/min, RP-HPLC Shimadzu system, column: Jupiter 4 µ Proteo, 90 Å, 250 x 4.60 mm; A – 0.1% aqueous TFA solution, B – 80% solution of acetonitrile in water with 0.1% of TFA; ^b molecular masses were determined using MALDI-TOF mass spectrometer.

[15] = literature value used for comparison; cited from earlier work
Excerpt: As expected, the critical aggregation concentration (CAC) values increased in the homologue series, i.e., Lys, Orn, Dab, and Dap, with a linear relationship of log CAC vs. number of methylene groups in the side chain of palmitoylated residue (Figure S3, Supplementary Materials). […] The modification of the acyl chain position separated the posi ...

Molecule	MIC, C. albicans [1] [µg/mL]	MIC, E. coli [2] [µg/mL]	MIC, P. aeruginosa [3] [µg/mL]	MIC, S. aureus [4] [µg/mL]	MIC, S. epidermidis [5] [µg/mL]	IC50, 46BR.1N (24h) [6] [µg/mL]	IC50, HaCaT (24h) [7] [µg/mL]	IC50, A375 (48h) [8] [µg/mL]	IC50, A549 (48h) [9] [µg/mL]	IC50, HCT-116 (48h) [10] [µg/mL]	IC50, HT-29 (48h) [11] [µg/mL]	IC50, LNCaP (48h) [12] [µg/mL]	IC50, MCF-7 (48h) [13] [µg/mL]	Retention time (used as measure of hydrophobicity) [14] [min]	CAC of N-terminally palmitoylated peptide [15] [mM]
CCCCCCCCCCCCCCCC(=O)NCC[C@H](NC(=O)[C@H](CCCCN)NC(=O)[C@@H](N)CCCCN)C(=O)N[C@@H](CCCCN)C(=O)N[C@@H](CCCCN)C(N)=O [KK(DabC16)KK-NH2] (H-KK[Dab](Palmitoyl)KK-NH2)	32 (≈ 36.9 µM)	8 (≈ 9.21 µM)	32 (≈ 36.9 µM)	4 (≈ 4.61 µM)	8 (≈ 9.21 µM)	9.45 ± 2.13 (≈ 10.9 µM)	16.95 ± 1.43 (≈ 19.5 µM)	>25	>25	16.74 ± 0.33 (≈ 19.3 µM)	20.75 ± 0.42 (≈ 23.9 µM)	>25	>25		
CCCCCCCCCCCCCCCC(=O)NCCC[C@H](NC(=O)[C@H](CCCCN)NC(=O)[C@@H](N)CCCCN)C(=O)N[C@@H](CCCCN)C(=O)N[C@@H](CCCCN)C(N)=O [KK(OC16)KK-NH2] (H-KK[Orn](Palmitoyl)KK-NH2)	32 (≈ 36.3 µM)	8 (≈ 9.07 µM)	32 (≈ 36.3 µM)	8 (≈ 9.07 µM)	4 (≈ 4.53 µM)	8.21 ± 1.12 (≈ 9.31 µM)	16.65 ± 2.29 (≈ 18.9 µM)	>25	>25	14.90 ± 0.75 (≈ 16.9 µM)	19.36 ± 0.58 (≈ 21.9 µM)	>25	>25	21.328	
CCCCCCCCCCCCCCCC(=O)NC[C@H](NC(=O)[C@@H](N)CCCCN)C(=O)N[C@@H](CCCCN)C(N)=O [K(DapC16)K-NH2] (H-Lys-[Dap](Palmitoyl)-Lys-NH2)	16 (≈ 26.8 µM)	8 (≈ 13.4 µM)	8 (≈ 13.4 µM)	8 (≈ 13.4 µM)	4 (≈ 6.69 µM)	8.68 ± 1.00 (≈ 14.5 µM)	7.25 ± 2.18 (≈ 12.1 µM)	11.63 ± 0.26 (≈ 19.5 µM)	>25	14.90 ± 0.30 (≈ 24.9 µM)	20.24 ± 0.81 (≈ 33.9 µM)	14.0 ± 0.41 (≈ 23.4 µM)	20.11 ± 2.51 (≈ 33.6 µM)		
C16-KKK-NH2 [Peptide C16-KKK-NH2]															4.8
CCCCCCCCCCCCCCCC(=O)NC[C@H](NC(=O)[C@H](CCCCN)NC(=O)[C@@H](N)CCCCN)C(=O)N[C@@H](CCCCN)C(=O)N[C@@H](CCCCN)C(N)=O [KK(DapC16)KK-NH2] (H-KK[Dap](Palmitoyl)KK-NH2)	256 (≈ 300 µM)	8 (≈ 9.37 µM)	32 (≈ 37.5 µM)	4 (≈ 4.68 µM)	8 (≈ 9.37 µM)	12.77 ± 1.32 (≈ 14.9 µM)		>25	>25	23.05 ± 0.92 (≈ 27 µM)	24.68 ± 0.49 (≈ 28.9 µM)	>25	>25		
